Patent US20220289732A1, “HETEROCYCLIC WDR5 INHIBITORS AS ANTI-CANCER COMPOUNDS” (NOVARTIS AG, priority 2019, published 2022)

Experiments:
WDR5 = WDR5 (Homo sapiens, UniProt P61964); experiment: WDR5 HTRF binding assay; settings: read-out: (a) WDR5 HTRF Pep Val v.1[Inhibitor/IC50]Qualified AC50
Outline: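 In this HTRF displacement format, biotinylated MLL1 WIN peptide (3762-3773, 20 nM) binds WDR5 (6 nM) in 25 mM Hepes pH 7.5 with 100 mM NaCl, 2 mM DTT and 0.1% BSA for 20 min at rt. Detection used streptavidin-APC/anti-His-Eu for 1 hr. IC50 came from dose-response fits of normalized signal; 15 nM biotin-PEG-His peptide served as counter assay.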

[1] = target: wild type MLL1 four-member complex (MLL1-4C) (Homo sapiens, UniProt P61964); experiment: MLL1 LC-MS assay (SAH production); assay type: biochemical; settings: read-out: (b) MLL LCMS Peptide Val.v.1 Qualified AC50
Outline: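 SAH formation, measured by LC-MS/MS after a TFA quench containing d4-SAH, was normalised to no-compound and no-enzyme controls and fitted to a dose-response curve for IC50. Reactions ran 120 min at rt (pH 8.0 Tris buffer) with final 30 nM MLL1 four-member complex, 2.5 μM SAM and 10 μM biotinylated H3[1-21] peptide, after a 20-min enzyme/SAM-compound preincubation.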

MV4-11 cells = experiment: MV4-11 6-day cell growth CTG (CellTiter-Glo) assay; assay type: cell-based; settings: Homo sapiens, MV4-11, 144 h, 6 days, read-out: (c) MLL/WDR5 cell proliferation assay//MLL/WDR5 proliferation MV4:11 Qualified AC50
Outline: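 IC50 comes from a dose-response fit of % inhibition relative to DMSO controls, with viable cells measured by CellTiter-Glo luminescence. Compounds were tested over 12 points (1:3, starting at 50 μM final) on MV4-11 cells plated at 300/well and grown 6 days.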

Row | IC50 (WDR5) [nM] | AC50 [1] [nM] | Compound | AC50 (MV4-11 cells) [nM]
1 | < 10 | 10 to 1000 | CCOc1cc([C@H](C)N2CCc3c(cc(CCN(C)CC)cc3-c3cc(C)cnc3C)C2=O)ncc1C#N [Example 114, (S)-6-(1-(5-(2,5-dimethylpyridin-3-yl)-7-(2-(ethyl(methyl)amino)ethyl)-1-oxo-3,4-dihydroisoquinolin-2(1H)-yl)ethyl)-4-ethoxynicotinonitrile] | 10 to 1000
2 | < 10 | 10 to 1000 | CCN(C)CCc1cc2c(c(-c3cn(C)nc3C)c1)CCN([C@@H](C)c1cc(OC)c(F)cn1)C2=O [Example 113, (S)-5-(1,3-dimethyl-1H-pyrazol-4-yl)-7-(2-(ethyl(methyl)amino)ethyl)-2-(1-(5-fluoro-4-methoxypyridin-2-yl)ethyl)-3,4-dihydroisoquinolin-1(2H)-one] | 10 to 1000
3 | 10 to 1000 | 10 to 1000 | CNc1nccn1Cc1cc2c(c(-c3cc(CO)cnc3Cl)c1)CCN(Cc1cccc(OC(F)F)c1)C2=O [Example 73, 5-(2-chloro-5-(hydroxymethyl)pyridin-3-yl)-2-(3-(difluoromethoxy)benzyl)-7-((2-(methylamino)-1H-imidazol-1-yl)methyl)-3,4-dihydroisoquinolin-1(2H)-one] | 10 to 1000
4 | 10 to 1000 | 10 to 1000 | CNc1nccn1Cc1cc2c(c(C(F)F)c1)CCN([C@@H](C)c1cc(OC)c(F)cn1)C2=O [Example 92, (S)-5-(difluoromethyl)-2-(1-(5-fluoro-4-methoxypyridin-2-yl)ethyl)-7-((2-(methylamino)-1H-imidazol-1-yl)methyl)-3,4-dihydroisoquinolin-1(2H)-one] | 10 to 1000
5 | 10 to 1000 | 10 to 1000 | CNc1nccn1Cc1cc2c(c(C3CC3)c1)CCN(Cc1cnc(F)c(OC)c1)C2=O [Example 79, 5-cyclopropyl-2-((6-fluoro-5-methoxypyridin-3-yl)methyl)-7-((2-(methylamino)-1H-imidazol-1-yl)methyl)-3,4-dihydroisoquinolin-1(2H)-one] | 10 to 1000
6 | 10 to 1000 | 10 to 1000 | CNc1nccn1Cc1cc(CN2CC[C@@H](F)C2)c2c(c1)C(=O)N([C@@H](C)c1cc(OC)c(F)cn1)CC2 [Example 16] | 10 to 1000
7 | 10 to 1000 | 10 to 1000 | CCOc1cc([C@H](C)N2CCc3c(cc(Cn4ccnc4NC)cc3C3CC3)C2=O)cnc1C#N [Example 80, (S)-5-(1-(5-cyclopropyl-7-((2-(methylamino)-1H-imidazol-1-yl)methyl)-1-oxo-3,4-dihydroisoquinolin-2(1H)-yl)ethyl)-3-ethoxypicolinonitrile] | 10 to 1000
8 | < 10 | 10 to 1000 | CCOc1cc([C@H](C)N2CCc3c(cc(CCN(C)CC)cc3-c3cc(C4CC4)cnc3C)C2=O)ncc1C#N [Example 160, (S)-6-(1-(5-(5-cyclopropyl-2-methylpyridin-3-yl)-7-(2-(ethyl(methyl)amino)ethyl)-1-oxo-3,4-dihydroisoquinolin-2(1H)-yl)ethyl)-4-ethoxynicotinonitrile] | 10 to 1000
9 | < 10 | 10 to 1000 | CCOc1cc([C@H](C)N2CCc3c(cc(CCN(C)CC)cc3-c3cn(C)nc3C)C2=O)ncc1C#N [Example 134, (S)-6-(1-(5-(1,3-dimethyl-1H-pyrazol-4-yl)-7-(2-(ethyl(methyl)amino)ethyl)-1-oxo-3,4-dihydroisoquinolin-2(1H)-yl)ethyl)-4-ethoxynicotinonitrile] | 10 to 1000
10 | 10 to 1000 | 10 to 1000 | CCOc1cc(C(C)N2CCc3c(cc(CCN(C)CC)cc3C(O)C(F)(F)F)C2=O)ncc1F (stereo not drawn) [compound 260] | 10 to 1000
11 | < 10 | 10 to 1000 | CCOc1cc(C(C)N2CCc3c(cc(CCN(C)CC)cc3-c3cc(Cl)nnc3Cl)C2=O)ncc1C#N (stereo not drawn) [Example 168, 6-(1-(5-(3,6-dichloropyridazin-4-yl)-7-(2-(ethyl(methyl)amino)ethyl)-1-oxo-3,4-dihydroisoquinolin-2(1H)-yl)ethyl)-4-ethoxynicotinonitrile] | 10 to 1000
12 | < 10 | 10 to 1000 | CCOc1cc([C@H](C)N2CCc3c(cc(Cn4ccnc4C)cc3-c3cn(C)c(=O)cc3C(F)(F)F)C2=O)ncc1F (single isomer, unassigned) [Example 278] | < 10
13 | < 10 | 10 to 1000 | CCOc1cc([C@H](C)N2CCc3c(cc(CCN(C)CC)cc3-c3c[nH]c(=O)cc3C(F)(F)F)C2=O)ncc1C#N [Example 176, (S)-4-ethoxy-6-(1-(7-(2-(ethyl(methyl)amino)ethyl)-1-oxo-5-(6-oxo-4-(trifluoromethyl)-1,6-dihydropyridin-3-yl)-3,4-dihydroisoquinolin-2(1H)-yl)ethyl)nicotinonitrile] | < 10
14 | < 10 | 10 to 1000 | CCOc1cc([C@H](C)N2CCc3c(cc(CCN(C)CCO)cc3-c3cc(N)cnc3C(F)(F)F)C2=O)ncc1C#N [Example 230] | 10 to 1000
15 | < 10 | 10 to 1000 | CCOc1cc([C@H](C)N2CCc3c(cc(Cn4ccnc4C)cc3-c3nn(C)nc3C)C2=O)ncc1C#N [Example 290] | 10 to 1000
16 | < 10 | 10 to 1000 | CCOc1cc([C@H](C)N2CCc3c(cc(CCN(C)CC)cc3-c3cn(C)c(=O)cc3C)C2=O)ncc1C#N [Example 131, (S)-6-(1-(5-(1,4-dimethyl-6-oxo-1,6-dihydropyridin-3-yl)-7-(2-(ethyl(methyl)amino)ethyl)-1-oxo-3,4-dihydroisoquinolin-2(1H)-yl)ethyl)-4 ethoxynicotinonitrile] | 10 to 1000
17 | < 10 | 10 to 1000 | CCOc1cc([C@H](C)N2CCc3c(cc(Cn4cncc4C)cc3-c3cn(C)nc3C)C2=O)ncc1C#N [Example 289] | 1000 to 25000
18 | 10 to 1000 | 10 to 1000 | CCOc1cc([C@H](C)N2CCc3c(CN4CC(F)(F)C4)cc(Cn4ccnc4NC)cc3C2=O)ncc1C#N [Example 40, (S)-6-(1-(5-((3,3-difluoroazetidin-1-yl)methyl)-7-((2-(methylamino)-1H-imidazol-1-yl)methyl)-1-oxo-3,4-dihydroisoquinolin-2(1H)-yl)ethyl)-4-ethoxynicotinonitrile] | 10 to 1000
19 | 10 to 1000 | 10 to 1000 | CCOc1cc([C@H](C)N2CCc3c(CN(C)C)cc(Cn4ccnc4NC)cc3C2=O)ncc1Cl [Example 20, (S)-2-(1-(5-chloro-4-ethoxypyridin-2-yl)ethyl)-5-((dimethylamino)methyl)-7-((2-(methylamino)-1H-imidazol-1-yl)methyl)-3,4-dihydroisoquinolin-1(2H)-one] | 10 to 1000
20 | 10 to 1000 | 10 to 1000 | CNc1nccn1Cc1cc(-c2cc(CO)cnc2Cl)c2ccn([C@@H](C)c3cccc(OC)c3)c(=O)c2c1 [Example 102, (S)-5-(2-chloro-5-(hydroxymethyl)pyridin-3-yl)-2-(1-(3-methoxyphenyl)ethyl)-7-((2-(methylamino)-1H-imidazol-1-yl)methyl)isoquinolin-1(2H)-one] | 10 to 1000
21 | 10 to 1000 | 10 to 1000 | CCOc1cc([C@@H](C)N2CCc3c(cc(CCN(C)CC)cc3-c3cc(C)cnc3C)C2=O)ncc1C#N [Example 156, (R)-6-(1-(5-(2,5-dimethylpyridin-3-yl)-7-(2-(ethyl(methyl)amino)ethyl)-1-oxo-3,4-dihydroisoquinolin-2(1H)-yl)ethyl)-4-ethoxynicotinonitrile] | 1000 to 25000
22 | < 10 | 10 to 1000 | CCOc1cc([C@H](C)N2CCc3c(CN(C)C4COC4)cc(Cn4ccnc4NC)cc3C2=O)ncc1F [Example 10, (S)-2-(1-(4-ethoxy-5-fluoropyridin-2-yl)ethyl)-5-((methyl(oxetan-3-yl)amino)methyl)-7-((2-(methylamino)-1H-imidazol-1-yl)methyl)-3,4-dihydroisoquinolin-1(2H)-one] | 10 to 1000
23 | 10 to 1000 | 10 to 1000 | CCOc1cc([C@H](C)N2CCc3c(cc(CCN(C)C4COC4)cc3-c3ccc(F)nc3C)C2=O)ncc1C#N [Example 253] | 10 to 1000
24 | 10 to 1000 | 10 to 1000 | CNc1nccn1Cc1cc2c(c(-c3cn(C)nc3C#N)c1)CCN(Cc1ccc(F)c(OC)c1)C2=O [Example 77, 4-(2-(4-fluoro-3-methoxybenzyl)-7-((2-(methylamino)-1H-imidazol-1-yl)methyl)-1-oxo-1,2,3,4-tetrahydroisoquinolin-5-yl)-1-methyl-1H-pyrazole-3-carbonitrile] | 10 to 1000
25 | 10 to 1000 | 10 to 1000 | CNc1nccn1Cc1cc2c(c(-c3cn(C)nc3C)c1)CCN(Cc1ccc(F)c(OC)c1)C2=O [Example 58, 5-(1,3-dimethyl-1H-pyrazol-4-yl)-2-(4-fluoro-3-methoxybenzyl)-7-((2-(methylamino)-1H-imidazol-1-yl)methyl)-3,4-dihydroisoquinolin-1(2H)-one] | 10 to 1000
